Measurements from ChEMBL document CHEMBL4477257, “In vitro cytotoxicity of novel 2,5,7-tricarbo-substituted indoles derived from 2-amino-5-bromo-3-iodoacetophenone” (2016).
Calls of active or inactive are those of the source. No cut-off for these calls is given here.

Experiments:
MCF7 [1] = test: Cytotoxicity against human MCF7 cells assessed as reduction in cell viability after 2 days by MTT assay; format: functional; settings: MCF7, 48 h, read-out: LC50 (the source's name)
HeLa [2] = test: Cytotoxicity against human HeLa cells assessed as reduction in cell viability after 2 days by MTT assay; format: functional; settings: 48 h, read-out: LC50 (the source's name)
HeLa [3] = test: Induction of apoptosis in human HeLa cells assessed as necrotic cells at 3 uM after 48 hrs by Annexin V/propidium iodide staining based flow cytometric analysis (reference value: 21.45 +/- 0.78 %); format: functional
HeLa [4] = test: Induction of apoptosis in human HeLa cells assessed as late apoptotic cells at 3 uM after 48 hrs by Annexin V/propidium iodide staining based flow cytometric analysis (reference value: 31.80 +/- 0.25 %); format: functional
HeLa [5] = test: Induction of apoptosis in human HeLa cells assessed as viable cells at 3 uM after 48 hrs by Annexin V/propidium iodide staining based flow cytometric analysis (reference value: 46.00 +/- 0.56 %); format: functional; settings: read-out: Activity
HeLa [6] = test: Induction of apoptosis in human HeLa cells assessed as early apoptotic cells at 3 uM after 48 hrs by Annexin V/propidium iodide staining based flow cytometric analysis (reference value: 0.05 +/- 0.07 %); format: functional
HeLa [7] = test: Induction of apoptosis in human HeLa cells assessed as caspase 3 activation at 0.75 to 3 uM after 24 hrs by colorimetric analysis; format: functional, cell-based
MCF7 [8] = test: Cytotoxicity against human MCF7 cells assessed as cell viability at 2 uM after 2 days by MTT assay relative to control; format: functional; settings: MCF7, 48 h, read-out: Activity
MCF7 [9] = test: Cytotoxicity against human MCF7 cells assessed as cell viability at 5 uM after 2 days by MTT assay relative to control; format: functional; settings: MCF7, 48 h, read-out: Activity
MCF7 [10] = test: Cytotoxicity against human MCF7 cells assessed as cell viability at 20 uM after 2 days by MTT assay relative to control; format: functional; settings: MCF7, 48 h, read-out: Activity
MCF7 [11] = test: Cytotoxicity against human MCF7 cells assessed as cell viability at 10 uM after 2 days by MTT assay relative to control; format: functional; settings: MCF7, 48 h, read-out: Activity
MCF7 [12] = test: Cytotoxicity against human MCF7 cells assessed as cell viability at 1 uM after 2 days by MTT assay relative to control; format: functional; settings: MCF7, 48 h, read-out: Activity
MCF7 [13] = test: Cytotoxicity against human MCF7 cells assessed as cell viability at 0.5 uM after 2 days by MTT assay relative to control; format: functional; settings: MCF7, 48 h, read-out: Activity
HeLa [14] = test: Cytotoxicity against human HeLa cells assessed as cell viability at 20 uM after 2 days by MTT assay relative to control; format: functional; settings: 48 h, read-out: Activity
HeLa [15] = test: Cytotoxicity against human HeLa cells assessed as cell viability at 10 uM after 2 days by MTT assay relative to control; format: functional; settings: 48 h, read-out: Activity
HeLa [16] = test: Cytotoxicity against human HeLa cells assessed as cell viability at 5 uM after 2 days by MTT assay relative to control; format: functional; settings: 48 h, read-out: Activity
HeLa [17] = test: Cytotoxicity against human HeLa cells assessed as cell viability at 2 uM after 2 days by MTT assay relative to control; format: functional; settings: 48 h, read-out: Activity
HeLa [18] = test: Cytotoxicity against human HeLa cells assessed as cell viability at 1 uM after 2 days by MTT assay relative to control; format: functional; settings: 48 h, read-out: Activity
HeLa [19] = test: Cytotoxicity against human HeLa cells assessed as cell viability at 0.5 uM after 2 days by MTT assay relative to control; format: functional; settings: 48 h, read-out: Activity

COc1cccc2c1C(=O)c1c(O)c3c(c(O)c1C2=O)C[C@@](O)(C(=O)CO)C[C@@H]3O[C@H]1C[C@H](N)[C@H](O)[C@H](C)O1.Cl [DOXORUBICIN HYDROCHLORIDE]
CC50 (MCF7 [1]): 1070 nM
CC50 (HeLa [2]): 780 nM
Activity (HeLa [3]): 40.4%
Activity (HeLa [4]): 58.5%
viability at 3 µM (HeLa [5]): 1.55%
Activity (HeLa [6]): 0.95%
Activity (HeLa [7]): Active
viability at 2 µM (MCF7 [8]): 38.4%
viability at 5 µM (MCF7 [9]): 34%
viability at 20 µM (MCF7 [10]): 24%
viability at 10 µM (MCF7 [11]): 27.5%
viability at 1 µM (MCF7 [12]): 44%
viability at 0.5 µM (MCF7 [13]): 66.4%
viability at 20 µM (HeLa [14]): 3.41%
viability at 10 µM (HeLa [15]): 4.43%
viability at 5 µM (HeLa [16]): 8.53%
viability at 2 µM (HeLa [17]): 39.2%
viability at 1 µM (HeLa [18]): 46%
viability at 0.5 µM (HeLa [19]): 62.8%
